The values that follow come from ChEMBL document CHEMBL1150039, “Dual inhibition of neutral endopeptidase and angiotensin-converting enzyme by N-phosphonomethyl and N-carboxyalkyl dipeptides” (Bioorg Med Chem Lett, 1994).

The target in assay [1] is Angiotensin-converting enzyme (Homo sapiens, UniProt P12821). As to the kind of experiment: In vitro inhibitory concentration against angiotensin-converting enzyme. It is filed as protein assay.
In assay [2] the target is Neprilysin (Homo sapiens, UniProt P08473). As to the kind of experiment: In vitro inhibitory concentration against neutral endopeptidase.
Chain of Neprilysin (P08473 whole entry): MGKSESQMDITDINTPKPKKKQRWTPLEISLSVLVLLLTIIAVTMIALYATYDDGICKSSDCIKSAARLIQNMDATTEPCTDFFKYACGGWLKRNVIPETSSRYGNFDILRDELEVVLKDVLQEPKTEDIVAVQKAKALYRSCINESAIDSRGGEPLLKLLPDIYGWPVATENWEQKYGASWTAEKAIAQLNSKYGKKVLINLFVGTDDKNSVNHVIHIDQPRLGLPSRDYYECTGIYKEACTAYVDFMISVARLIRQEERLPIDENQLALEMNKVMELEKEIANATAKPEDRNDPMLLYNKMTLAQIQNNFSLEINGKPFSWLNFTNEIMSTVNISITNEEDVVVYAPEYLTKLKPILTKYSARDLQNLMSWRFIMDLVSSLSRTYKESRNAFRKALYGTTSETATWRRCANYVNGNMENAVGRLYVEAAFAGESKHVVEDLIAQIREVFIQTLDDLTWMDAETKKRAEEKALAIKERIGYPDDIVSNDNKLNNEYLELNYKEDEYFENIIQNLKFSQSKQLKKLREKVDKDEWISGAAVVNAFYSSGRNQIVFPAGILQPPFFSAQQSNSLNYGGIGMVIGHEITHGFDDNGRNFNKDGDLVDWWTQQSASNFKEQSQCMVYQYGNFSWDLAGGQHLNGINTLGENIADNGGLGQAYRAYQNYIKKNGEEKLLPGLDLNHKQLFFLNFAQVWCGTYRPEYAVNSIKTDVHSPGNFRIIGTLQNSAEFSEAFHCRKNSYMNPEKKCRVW

Chain of Angiotensin-converting enzyme (P12821 whole entry): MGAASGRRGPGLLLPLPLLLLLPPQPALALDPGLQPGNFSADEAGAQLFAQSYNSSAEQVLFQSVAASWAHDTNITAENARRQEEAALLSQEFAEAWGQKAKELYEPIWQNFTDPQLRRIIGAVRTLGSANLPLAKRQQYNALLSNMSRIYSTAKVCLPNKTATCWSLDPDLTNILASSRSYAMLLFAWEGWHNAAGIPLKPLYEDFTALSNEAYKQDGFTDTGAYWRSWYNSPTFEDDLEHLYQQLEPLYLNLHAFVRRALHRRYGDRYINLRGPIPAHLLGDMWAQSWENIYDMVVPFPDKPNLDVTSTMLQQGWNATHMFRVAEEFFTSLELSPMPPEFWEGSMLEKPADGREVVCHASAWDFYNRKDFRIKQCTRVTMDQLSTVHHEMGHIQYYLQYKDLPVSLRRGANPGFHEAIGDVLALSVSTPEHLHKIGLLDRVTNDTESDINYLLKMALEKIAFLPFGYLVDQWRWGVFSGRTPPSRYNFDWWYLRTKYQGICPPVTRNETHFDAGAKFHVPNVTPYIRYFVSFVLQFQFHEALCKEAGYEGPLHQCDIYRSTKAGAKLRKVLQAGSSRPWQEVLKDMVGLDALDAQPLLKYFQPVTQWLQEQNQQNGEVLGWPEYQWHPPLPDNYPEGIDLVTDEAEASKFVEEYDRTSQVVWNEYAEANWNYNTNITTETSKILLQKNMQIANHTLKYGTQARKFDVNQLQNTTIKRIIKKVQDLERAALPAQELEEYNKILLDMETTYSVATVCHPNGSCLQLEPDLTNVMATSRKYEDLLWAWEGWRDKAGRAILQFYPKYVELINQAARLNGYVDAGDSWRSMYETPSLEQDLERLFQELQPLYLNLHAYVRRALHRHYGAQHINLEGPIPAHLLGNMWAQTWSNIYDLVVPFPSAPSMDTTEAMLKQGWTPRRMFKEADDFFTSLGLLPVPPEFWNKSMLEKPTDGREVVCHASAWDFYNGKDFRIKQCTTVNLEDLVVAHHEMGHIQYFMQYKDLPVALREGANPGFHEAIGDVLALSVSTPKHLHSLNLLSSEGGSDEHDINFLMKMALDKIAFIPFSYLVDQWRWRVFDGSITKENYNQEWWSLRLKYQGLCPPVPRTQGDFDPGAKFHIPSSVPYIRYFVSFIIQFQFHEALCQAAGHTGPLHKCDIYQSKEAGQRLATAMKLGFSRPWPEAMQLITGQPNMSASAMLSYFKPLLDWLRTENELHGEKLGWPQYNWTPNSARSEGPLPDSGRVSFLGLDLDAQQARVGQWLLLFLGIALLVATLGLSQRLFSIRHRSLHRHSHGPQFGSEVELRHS

As for `CCCC[C@H](NCP(=O)(O)O)C(=O)N[C@@H](Cc1ccc(-c2ccccc2)cc1)C(=O)O`, the IC50 in assay [1] was determined as 731 nM; in assay [2], 37 nM.

Consider `O=C(O)[C@H](Cc1ccc(-c2ccccc2)cc1)NC(=O)[C@H](Cc1cnc[nH]1)NCP(=O)(O)O`, for which the half-maximal inhibitory concentration (IC50) in assay [1] and in assay [2] was more than 1000 nM in each case.

For `C[C@H](O)[C@H](NCP(=O)(O)O)C(=O)N[C@@H](Cc1ccc(-c2ccccc2)cc1)C(=O)O`, the results for the IC50 in assay [1] and in assay [2] were 665 nM and more than 1000 nM, respectively.

`CC(C)Oc1ccc(C[C@H](NC(=O)[C@@H](NCP(=O)(O)O)C(C)C)C(=O)O)cc1`: the IC50 amounted to 92 nM in assay [1] and 9 nM in assay [2].

With `O=C(O)[C@H](Cc1ccc(-c2ccccc2)cc1)NC(=O)[C@H](Cc1ccc2c(c1)OCO2)NCP(=O)(O)O`, the IC50 in assay [1] was found to be 147 nM; in assay [2], 48 nM.

With `CC[C@H](C)C(NCC(=O)O)C(=O)N[C@@H](Cc1ccc(-c2ccccc2)cc1)C(=O)O` (some centres undefined), the IC50 in assay [1] was 65 nM; in assay [2], 200 nM.

As to `O=C(O)[C@H](Cc1ccc(-c2ccccc2)cc1)NC(=O)[C@H](Cc1ccccc1O)NCP(=O)(O)O`, the half-inhibitory concentration (IC50) in assay [1] and in assay [2] was more than 1000 nM each time.

Consider `CC(C)[C@H](NCP(=O)(O)O)C(=O)N[C@@H](Cc1ccc(-c2ccccc2)cc1)C(=O)N1C[C@H](O)C[C@H]1C(=O)O`, for which the results for the IC50 in assay [1] and in assay [2] were more than 1000 nM and 12 nM, respectively.

On to `O=C(O)[C@H](Cc1ccc(-c2ccccc2)cc1)NC(=O)[C@H](Cc1ccc(Cl)cc1)NCP(=O)(O)O`, for which the 50% inhibitory concentration (IC50) came to 473 nM in assay [1] and 338 nM in assay [2].

As for `C[C@H](c1ccccc1)[C@H](NCP(=O)(O)O)C(=O)N[C@@H](Cc1ccc(-c2ccccc2)cc1)C(=O)O`, the IC50 turned out to be 138 nM in assay [1] and 47 nM in assay [2].

As to `O=C(O)[C@H](Cc1ccc(-c2ccccc2)cc1)NC(=O)C1(NCP(=O)(O)O)CCCC1`, the IC50 in assay [1] and in assay [2] was more than 1000 nM throughout.

Take `CC(C)[C@H](NCP(=O)(O)O)C(=O)N[C@@H](Cc1ccc(-c2ccccc2)cc1)C(=O)N[C@@H](Cc1ccc(O)cc1)C(=O)O`: the values for the IC50 in assay [1] and in assay [2] were more than 1000 nM and 4 nM, respectively.

Take `O=C(O)[C@H](Cc1ccc(-c2ccccc2)cc1)NC(=O)[C@H](Cc1cccs1)NCP(=O)(O)O`: the IC50 in assay [1] turned out to be 385 nM; in assay [2], 73 nM.

`C[C@H](OCc1ccccc1)[C@H](NCP(=O)(O)O)C(=O)N[C@@H](Cc1ccc(-c2ccccc2)cc1)C(=O)O`: the 50% inhibitory concentration (IC50) in assay [1] was 656 nM; in assay [2], more than 1000 nM.

For the compound `O=C(O)[C@H](Cc1ccc(-c2ccccc2)cc1)NC(=O)[C@H](Cc1ccc(-c2ccccc2)cc1)NCP(=O)(O)O`, the half-maximal inhibitory concentration (IC50) came out at 414 nM in assay [1] and 20 nM in assay [2].

As for `O=C(O)[C@H](Cc1ccc(-c2ccccc2)cc1)NC(=O)[C@H](Cc1ccc(O)cc1)NCP(=O)(O)O`, the 50% inhibitory concentration (IC50) in assay [1] was more than 1000 nM; in assay [2] it was 226 nM.

For the compound `CC(C)[C@H](NCP(=O)(O)O)C(=O)N[C@@H](Cc1ccc(-c2ccccc2)cc1)C(=O)O`, the concentration for half-maximal inhibition (IC50) in assay [1] was 25 nM; in assay [2], 3 nM.

For the compound `CC[C@@H](C)[C@H](NCP(=O)(O)O)C(=O)N[C@@H](Cc1ccc(-c2ccccc2)cc1)C(=O)O`, the IC50 in assay [1] was found to be 50 nM; in assay [2] it was 2 nM.

Take `C[C@H](NCP(=O)(O)O)C(=O)N[C@@H](Cc1ccc(-c2ccccc2)cc1)C(=O)O`: the 50% inhibitory concentration (IC50) in assay [1] came out at 660 nM; in assay [2], 1000 nM.

Consider `Cc1ccccc1C[C@H](NCP(=O)(O)O)C(=O)N[C@@H](Cc1ccc(-c2ccccc2)cc1)C(=O)O`, for which the IC50 was 498 nM in assay [1] and 96 nM in assay [2].

Consider `C[C@H](N[C@@H](Cc1ccccc1)C(=O)N[C@@H](Cc1ccc(-c2ccccc2)cc1)C(=O)O)P(=O)(O)O`, for which the half-maximal inhibitory concentration (IC50) in assay [1] amounted to 44 nM; in assay [2] it was 171 nM.

For `O=C(O)[C@H](Cc1ccc(-c2ccccc2)cc1)NC(=O)[C@H](Cc1ccc2ccccc2c1)NCP(=O)(O)O`, the half-maximal inhibitory concentration (IC50) in assay [1] worked out at 53 nM; in assay [2], 282 nM.

Consider `CC(C)[C@H](N[C@@H](C)C(=O)O)C(=O)N[C@@H](Cc1ccc(-c2ccccc2)cc1)C(=O)O`, for which the IC50 in assay [1] turned out to be 23 nM; in assay [2], 735 nM.

Consider `O=C(O)[C@H](Cc1ccc(-c2ccccc2)cc1)NC(=O)[C@@H](NCP(=O)(O)O)C1CCCCC1`, for which the IC50 in assay [1] is more than 1000 nM; in assay [2] it was 34 nM.

Turning to `CC(C)C[C@H](NCP(=O)(O)O)C(=O)N[C@@H](Cc1ccc(-c2ccccc2)cc1)C(=O)O`, the IC50 in assay [1] is more than 1000 nM; in assay [2], 356 nM.

Take `CC(C)[C@H](NCP(=O)(O)O)C(=O)N[C@@H](Cc1c[nH]c2ccccc12)C(=O)O`: the figures for the half-inhibitory concentration (IC50) in assay [1] and in assay [2] were 240 nM and 9 nM, respectively.

Take `CC(C)[C@H](NCP(=O)(O)O)C(=O)N[C@@H](Cc1ccc(C2CCCCC2)cc1)C(=O)O`: the IC50 stood at 122 nM in assay [1] and 35 nM in assay [2].

As to `O=C(O)[C@H](Cc1ccc(-c2ccccc2)cc1)NC(=O)[C@H](Cc1ccccc1)NCP(=O)(O)O`, the half-inhibitory concentration (IC50) in assay [1] worked out at 117 nM; in assay [2], 35 nM.

Take `CC(C)(C)[C@H](NCP(=O)(O)O)C(=O)N[C@@H](Cc1ccc(-c2ccccc2)cc1)C(=O)O`: the IC50 in assay [1] and in assay [2] was more than 1000 nM each time.

For `CC(C)[C@H](NCP(=O)(O)O)C(=O)N[C@@H](CCc1ccccc1)C(=O)O`, the 50% inhibitory concentration (IC50) in assay [1] was found to be 100 nM; in assay [2], 26 nM.

As to `COc1ccccc1C[C@H](NCP(=O)(O)O)C(=O)N[C@@H](Cc1ccc(-c2ccccc2)cc1)C(=O)O`, the IC50 in assay [1] was 160 nM; in assay [2], more than 1000 nM.

Consider `CC[C@H](C)C(N[C@@H](C)C(=O)O)C(=O)N[C@@H](Cc1ccc(-c2ccccc2)cc1)C(=O)O` (some centres undefined), for which the IC50 in assay [1] turned out to be 22 nM; in assay [2], 165 nM.

A word on the IC50: it is the concentration needed to halve the response being measured. Higher therefore signals weaker potency.
